Measurements reported in patent publication US20060069132A1, “Azolecarboxamide herbicides” (priority 2004, published 2006).

Columns and labels:
Experiment in all cases: Test A pre-/postemergence herbicide test
barnyardgrass = assay type: in vivo, Echinochloa crus-galli
Description: (§1) Seeds of plant species selected from barnyardgrass (Echinochloa crus-galli (L.) Beauv.), downy bromegrass (Bromus tectorum L.), large crabgrass (Digitaria sanguinalis (L.) Scop.), giant foxtail (Setaria faberi Herrm.), morningglory (Ipomoea spp.), redroot pigweed (Amaranthus retroflexus L.) and velvetleaf (Abutilon theophrasti Medik.) were planted into a sandy loam soil and treated preemergence with a directed soil spray using test chemicals formulated in a non-phytotoxic solvent mixture which included a surfactant. At the same time plants selected from these species were also treated postemergence by spraying to runoff with test chemicals formulated.
(§2) Plants ranged in height from 2 to 10 cm and were in the one- to two-leaf stage for the postemergence treatment. Treated plants and untreated controls were maintained in a greenhouse for approximately ten days, after which time all treated plants were compared to untreated controls and visually evaluated for injury. Plant response ratings, summarized in Table A, are based on a 0 to 100 scale where 0 is no effect and 100 is complete control. A dash (-) response means no test results.

morningglory = assay type: in vivo, Ipomoea spp.
Description: as §1, §2

redroot pigweed = assay type: in vivo, Amaranthus retroflexus
Description: as §1, §2

large crabgrass = assay type: in vivo, Digitaria sanguinalis
Description: as §1, §2

velvetleaf = assay type: in vivo, Abutilon theophrasti
Description: as §1, §2

giant foxtail = assay type: in vivo, Setaria faberi
Description: as §1, §2

[1] = Postemergence, 125 g ai/ha, 0 to 100 scale, 0 no effect, 100 complete control
[2] = Postemergence, 500 g ai/ha, 0 to 100 scale, 0 no effect, 100 complete control
[3] = Preemergence, 500 g ai/ha, visual rating, 0 to 100 scale (0 no effect, 100 complete control)
[4] = preemergence, 125 g ai/ha, visual injury, 0 to 100 scale (0 no effect, 100 complete control)
[5] = preemergence, 500 g ai/ha, visual injury, 0 to 100 scale (0 no effect, 100 complete control)
[6] = Postemergence, 250 g ai/ha, 0 to 100 scale, 0 no effect, 100 complete control
[7] = Postemergence, 1000 g ai/ha, 0 to 100 scale, 0 no effect, 100 complete control
[8] = Preemergence, 1000 g ai/ha, visual rating, 0 to 100 scale (0 no effect, 100 complete control)
[9] = preemergence, 250 g ai/ha, visual injury, 0 to 100 scale (0 no effect, 100 complete control)
[10] = Postemergence, 2000 g ai/ha, 0 to 100 scale, 0 no effect, 100 complete control
[11] = Preemergence, 2000 g ai/ha, visual rating, 0 to 100 scale (0 no effect, 100 complete control)

C=Cn1nc(C(C)(C)C)cc1C(=O)Nc1cccc(C(=O)NCCCl)c1 [Compound 38]
Barnyardgrass plant response rating (barnyardgrass; [1]): 40 | Plant response rating, Barnyardgrass (barnyardgrass; [2]): 55 | Barnyardgrass plant response rating (barnyardgrass; [3]): 5 | Barnyardgrass plant response rating (barnyardgrass; [4]): 0 | Morningglory plant response rating (morningglory; [1]): 0 | Plant response rating, Morningglory (morningglory; [2]): 0 | Morningglory plant response rating (morningglory; [3]): 10 | Morningglory plant response rating (morningglory; [4]): 5 | Pigweed plant response rating (redroot pigweed; [1]): 50 | Plant response rating, Pigweed (redroot pigweed; [2]): 70 | Pigweed plant response rating (redroot pigweed; [3]): 0 | Pigweed plant response rating (redroot pigweed; [4]): 0 | Crabgrass, Large plant response rating (large crabgrass; [1]): 30 | Plant response rating, Crabgrass, Large (large crabgrass; [2]): 60 | Crabgrass, Large plant response rating (large crabgrass; [3]): 10 | Crabgrass, Large plant response rating (large crabgrass; [4]): 0 | Velvetleaf plant response rating (velvetleaf; [1]): 10 | Plant response rating, Velvetleaf (velvetleaf; [2]): 20 | Velvetleaf plant response rating (velvetleaf; [3]): 5 | Velvetleaf plant response rating (velvetleaf; [4]): 0 | Foxtail, Giant plant response rating (giant foxtail; [1]): 50 | Plant response rating, Foxtail, Giant (giant foxtail; [2]): 60 | Foxtail, Giant plant response rating (giant foxtail; [3]): 0 | Foxtail, Giant plant response rating (giant foxtail; [4]): 0

CCc1nn(C(C)(C)C)cc1C(=S)Nc1cc(C(=S)N(C)C)ccc1F [Compound 453]
Barnyardgrass plant response rating (barnyardgrass; [1]): 10 | Barnyardgrass plant response rating (barnyardgrass; [2]): 15 | Barnyardgrass plant response rating (barnyardgrass; [4]): 20 | Barnyardgrass plant response rating (barnyardgrass; [5]): 45 | Morningglory plant response rating (morningglory; [1]): 10 | Morningglory plant response rating (morningglory; [2]): 10 | Morningglory plant response rating (morningglory; [4]): 0 | Morningglory plant response rating (morningglory; [5]): 0 | Pigweed plant response rating (redroot pigweed; [1]): 10 | Pigweed plant response rating (redroot pigweed; [2]): 20 | Pigweed plant response rating (redroot pigweed; [4]): 10 | Pigweed plant response rating (redroot pigweed; [5]): 10 | Crabgrass, Large plant response rating (large crabgrass; [1]): 10 | Crabgrass, Large plant response rating (large crabgrass; [2]): 10 | Crabgrass, Large plant response rating (large crabgrass; [4]): 10 | Crabgrass, Large plant response rating (large crabgrass; [5]): 15 | Velvetleaf plant response rating (velvetleaf; [1]): 5 | Velvetleaf plant response rating (velvetleaf; [2]): 10 | Velvetleaf plant response rating (velvetleaf; [4]): 0 | Velvetleaf plant response rating (velvetleaf; [5]): 0 | Foxtail, Giant plant response rating (giant foxtail; [1]): 10 | Foxtail, Giant plant response rating (giant foxtail; [2]): 10 | Foxtail, Giant plant response rating (giant foxtail; [4]): 0 | Foxtail, Giant plant response rating (giant foxtail; [5]): 0

C=Cn1nc(C(C)(C)C)cc1C(=O)Nc1cccc(C(=O)NC2CC2)c1 [Compound 39]
Barnyardgrass plant response rating (barnyardgrass; [6]): 10 | Plant response rating, Barnyardgrass (barnyardgrass; [7]): 55 | Barnyardgrass plant response rating (barnyardgrass; [8]): 25 | Barnyardgrass plant response rating (barnyardgrass; [9]): 15 | Morningglory plant response rating (morningglory; [6]): 0 | Plant response rating, Morningglory (morningglory; [7]): 0 | Morningglory plant response rating (morningglory; [8]): 20 | Morningglory plant response rating (morningglory; [9]): 0 | Pigweed plant response rating (redroot pigweed; [6]): 70 | Plant response rating, Pigweed (redroot pigweed; [7]): 75 | Pigweed plant response rating (redroot pigweed; [8]): 100 | Pigweed plant response rating (redroot pigweed; [9]): 55 | Crabgrass, Large plant response rating (large crabgrass; [6]): 10 | Plant response rating, Crabgrass, Large (large crabgrass; [7]): 35 | Crabgrass, Large plant response rating (large crabgrass; [8]): 85 | Crabgrass, Large plant response rating (large crabgrass; [9]): 35 | Velvetleaf plant response rating (velvetleaf; [6]): 10 | Plant response rating, Velvetleaf (velvetleaf; [7]): 10 | Velvetleaf plant response rating (velvetleaf; [8]): 20 | Velvetleaf plant response rating (velvetleaf; [9]): 10 | Foxtail, Giant plant response rating (giant foxtail; [6]): 10 | Plant response rating, Foxtail, Giant (giant foxtail; [7]): 45 | Foxtail, Giant plant response rating (giant foxtail; [8]): 40 | Foxtail, Giant plant response rating (giant foxtail; [9]): 20

Cn1nc(C(C)(C)C)cc1C(=O)Nc1cccc2c1CCC2=NO [Compound 111]
Barnyardgrass plant response rating (barnyardgrass; [2]): 0 | Plant response rating, Barnyardgrass (barnyardgrass; [10]): 0 | Barnyardgrass plant response rating (barnyardgrass; [3]): 0 | Barnyardgrass plant response rating (barnyardgrass; [11]): 10 | Morningglory plant response rating (morningglory; [2]): 5 | Plant response rating, Morningglory (morningglory; [10]): 0 | Morningglory plant response rating (morningglory; [3]): 0 | Morningglory plant response rating (morningglory; [11]): 0 | Pigweed plant response rating (redroot pigweed; [2]): 5 | Plant response rating, Pigweed (redroot pigweed; [10]): 10 | Pigweed plant response rating (redroot pigweed; [3]): 10 | Pigweed plant response rating (redroot pigweed; [11]): 10 | Crabgrass, Large plant response rating (large crabgrass; [2]): 10 | Plant response rating, Crabgrass, Large (large crabgrass; [10]): 10 | Crabgrass, Large plant response rating (large crabgrass; [3]): 25 | Crabgrass, Large plant response rating (large crabgrass; [11]): 30 | Velvetleaf plant response rating (velvetleaf; [2]): 0 | Plant response rating, Velvetleaf (velvetleaf; [10]): 0 | Velvetleaf plant response rating (velvetleaf; [3]): 0 | Velvetleaf plant response rating (velvetleaf; [11]): 0 | Foxtail, Giant plant response rating (giant foxtail; [2]): 0 | Plant response rating, Foxtail, Giant (giant foxtail; [10]): 0 | Foxtail, Giant plant response rating (giant foxtail; [3]): 45 | Foxtail, Giant plant response rating (giant foxtail; [11]): 75
